From patent US9913858B2, “Prevention and treatment of toxicosis” (priority 2013, dated 2018)
Read-outs that look alike come from different tables or passages of the source.

Tests used:
[1] = tested on: cerebellum; format: in vivo; conditions: sheep cerebellum
Method: (§1) A full clinical examination was performed prior to euthanasia. At euthanasia, 100 I.U. heparin (Provet Riverina Pty Ltd) was injected into the jugular vein, followed shortly by Lethabarb (20 mL/40 kg LW). Immediately after euthanasia, the ventral articulation of C1 was exposed and cerebrospinal fluid (CSF) collected using a 23 g needle. The head was then removed and subjected to perfusion fixation. Briefly, the carotid arteries were exposed and a small catheter inserted and ligated to secure the perfusion lines. Two liters of 0.1% phosphate buffered saline (PBS) containing 3000 I.U of heparin/L was then slowly perfused via the ligated vessels at a pressure of 90 mm Hg using a Microgon peristaltic Pump (Microgon, Laguna Hills, Calif.). Once complete this was replaced with 4% paraformaldehyde (Sigma-Alrich) in 0.1% PBS and a further two liters allowed to perfuse slowly through the tissues of the head. Once complete, catheters were removed and the whole head placed at 4° C. overnight to complete fixation. Twenty-four hours post perfusion fixation the brain was removed from the skull and placed in 10% formal saline for storage until dissection for processing to wax sections.
Concurrent to fixation perfusion of the head, a routine ovine necropsy was performed and all general tissues taken for routine histopathology. These were heart, lung, oesophagus and trachea, liver, spleen, gut (rumen, abomasum, ileocaecal junction, ileum, caecum and colon), skeletal muscle (gluteal, tricep and diaphram), kidney, pancreas, thymus, ileal and cranial lymph nodes as well as tissues from any gross abnormalities observed at time post necropsy. Other samples: subcutaneous fat, renal fat, gluteal muscle, kidney, faeces and rumen contents were collected and stored at −80° C. for future toxicological analysis. Samples for routine histopathology were fixed in 10% formal saline for a minimum of 48 hours before processing to wax using an automated wax embedder (Shandon Excelsior ES Tissue Processor, Thermo Fisher Scientific).
For histopathology, sections of brain and spinal cord included the following regions: mid cerebellar peduncle; mid and lateral sections of cerebellum; obex, occipital cortex; rostral colliculi; basal ganglia; frontal cortex; temporal cortex; thalamus; hippocampus; internal capsule; cervical, thoracic and lumbar spinal cord and pituitary. Other tissues examined for routine histopathology were kidney; lung; ileum; heart; liver including, gall bladder and bile duct; diaphragm; rumen; and colon. All sections were cut at 5 μm and stained with Haematoxylin and Eosin (H&E) using an automated staining system (Shandon Varistain Gemini ES Slide Stainer, Thermo Fisher Scientific).

[2] = tested on: mice; test: Lolitrem B intoxication in mice, tremor and movement analysis; format: in vivo; conditions: lolitrem B 2 mg/kg IP
Method: FIG. 1. Tremor analysis of animals treated with a single dose of lolitrem B toxin. Tremor analysis: FFT frequency analysis from a mouse prior to (A) and 6 hours post lolitrem B injection 2 mg/kg i.p. (B). Low frequency (0-7 Hz) power output represents primarily movement. […] (D) Tremor-Motion power ratio at one hour post lolitrem B injection (n=4) and vehicle only control (n=4) (*p<0.05, lolitrem B (2 mg/kg i.p.) vs vehicle).
Lolitrem B was tested in mice to establish this as a suitable model for perennial ryegrass toxicosis and lolitrem B intoxication in grazing animals. […] These signs are consistent with clinical signs seen in grazing animals (See FIG. 1).

[3] = tested on: lolitrem B toxicosis (Rye Grass Staggers); test: Electromyography, tremor intensity; format: in vivo, sheep; conditions: lolitrem B intoxicated, EMG
Method: EMGs were recorded on entry to the trial, entry to the end of trial (Day 1) and date of post mortem (Day 3) using Powerlab™ (ADInstruments, Castle Hill, Australia) and data recorded using LabChart™ software (ADInstruments, Australia). In preparation, the fleece was shorn from an area over the triceps muscle and along brachiocephalicus muscle of the neck. EMG electrodes were attached to the skin using SuperGlue™. Muscle activity was recorded for a minimum of three minutes with the animal standing at rest with a band pass filter set at 100 Hz. Three minute EMG recordings were taken using Ag—AgCl surface electrodes over the triceps muscle on to entry to the trial, on first day of falling (Day 1) and 48 hours post treatment (Day 3). Data analysis was achieved by application of a Fast-Fourier transformation for statistical comparison. Area under the curve was then calculated at frequencies between 5 and 30 Hz to estimate tremor intensity.

[4] = PK studies performed prior to this trial (Combs and Edwards, personal communication); cited from earlier work
[5] = Serum and cerebrospinal fluid bromide concentrations in the sheep trial; format: in vivo; conditions: intoxicated sheep
Method: Venous blood samples collected for biochemical analysis and haematocrit (PCV), and urine for USG, at three specific time points during the experiment for all animals: 1) on entry to the trial; 2) on date of entry to the end of trial protocol and, 3) on day of necropsy.
as §1
Absorbance was measured with a spectrophotometer at 440 nm. […] The lower limit of quantification (LOQ) was 25 μg/mL.

[6] = tested on: lolitrem B intoxication; test: KBr pre-treatment in rodent model of PRGT (lolitrem B injection), tremor analysis and novel arena test; format: in vivo, mice
Method: Mice were administered 2500 ppm KBr in their drinking water for 7 days prior to injection with lolitrem B (2 mg/kg IP).

[7] = Group 3: toxin plus acute treatment
[8] = Group 4: toxin plus prophylactic treatment
[9] = Group 5: prophylactic treatment only
[10] = 2500 ppm KBr in drinking water 7 days prior to lolitrem B 2 mg/kg IP, one hour post injection
[11] = 2500 ppm KBr in drinking water 7 days, 3.5 hours post lolitrem B 2 mg/kg IP

CC(C)=C[C@H]1O[C@H]2[C@H]3O[C@@]34[C@H](CC[C@@]3(C)[C@@]4(O)CC[C@H]4Cc5c([nH]c6ccc7c(c56)C[C@@H]5[C@@H](C7=O)C(C)(C)OC5(C)C)[C@@]43C)O[C@@H]2C(C)(C)O1 [lolitrem B]
Incidence of Purkinje neuron vacuolation ([1]; Group 2: toxin only): 5/9
Incidence of pyknotic cell bodies in granular layer ([1]; Group 2: toxin only): 9/9
Incidence of spheroids, granular layer ([1]; Group 2: toxin only): 7/9
Incidence of spheroids, molecular layer ([1]; Group 2: toxin only): 1/9
distinctive tremor spike, frequency range [2]: 10-19 Hz
movement [2]: decrease in movement
Day 1: Day 3 tremor intensity ratio, median ([3]; Group 2 sheep, no treatment): 2.03

[Br-].[K+] [potassium bromide]
time of peak serum bromide levels post administration [4]: 6 h
Incidence of Purkinje neuron vacuolation [1, 7]: 2/9
Incidence of pyknotic cell bodies in granular layer [1, 7]: 5/9
Incidence of spheroids, granular layer [1, 7]: 7/9
Incidence of spheroids, molecular layer [1, 7]: 0/9
Incidence of Purkinje neuron vacuolation [1, 8]: 1/9
Incidence of pyknotic cell bodies in granular layer [1, 8]: 9/9
Incidence of spheroids, granular layer [1, 8]: 6/9
Incidence of spheroids, molecular layer [1, 8]: 3/9
Incidence of Purkinje neuron vacuolation [1, 9]: 0/9
Incidence of pyknotic cell bodies in granular layer [1, 9]: 2/9
Incidence of spheroids, granular layer [1, 9]: 1/9
Incidence of spheroids, molecular layer [1, 9]: 3/9
mean serum bromide concentration ([5]; 6 hours after oral 300 mg/kg potassium bromide, n=3): 899.43 µg/mL
final mean serum bromide concentration ([5]; 48 hours after oral 300 mg/kg potassium bromide, n=6): 804.34 µg/mL
peak tremor frequency [6, 10]: reduced
tremor to movement ratio [6, 10]: reduced
movement in novel arena test [6, 11]: increased
time freezing in novel arena test [6, 11]: reduce
Day 1: Day 3 tremor intensity ratio ([3]; Group 3 sheep, acute KBr treatment): 0.81
